Data taken from patent EP4640674A1, “CRYSTAL FORMS OF ETHOXIMOD, PREPARATION METHOD THEREFOR AND USE THEREOF” (Jiankuan (Suzhou) Biotechnology Co., Ltd, priority 2022, dated 2024).
Where “and” joins values, the source holds several entries; their conditions need not be identical. Identical values can stand only once.

Assays:
[1] = Angle of repose test (flowability); format: physicochemical; settings: hydrochloride; for Angle of Repose: single determination
Method: Powder properties of active pharmaceutical ingredients affect the flowability of the active pharmaceutical ingredients. The crystal form A and the crystal form B of ethoximod was subjected to angle of repose and Hausner ratio tests to compare the flowability of the crystal form A and the crystal form B of ethoximod. […] In this experiment, angles of repose of active pharmaceutical ingredients of the two crystal forms were measured through an injection method in combination with a residual cone method, and the flowability of the active pharmaceutical ingredients of the two crystal forms was analyzed. Specific operations are as follows: powders were injected into a center of a disc with a limited diameter, the injection was stopped until materials on an oblique side of a powder accumulation layer automatically flew out along an edge of the disc, a height (H) of a cone was measured, and the angle of repose was calculated according to the diameter (D = 2r) of the disc with tanQ = H/r.

[2] = Adhesion test in ziplock bag; format: physicochemical; settings: ziplock bag flipped at 5 rpm, 10 min in each direction; hydrochloride
Method: Each of the crystal form A and the crystal form B of ethoximod was taken and put into a ziplock bag with a fixed size. A seal was sealed, and the ziplock bag was flipped at a rotation speed of 5 rpm for 10 min. A direction was changed, and the ziplock bag continued to be flipped at a fixed rotation speed for 10 min. Raw materials were poured out from the bag, a mass of the remaining raw materials was weighed accurately, and an adhesion rate was calculated.

With `CCc1nc(-c2ccc(-c3ccc(CCC(N)(CO)CO)cc3)cc2)co1.Cl` [crystal form B, 2-amino-2-{2-(4'-(2-ethyloxazol-4-yl)-[1,1'-biphenyl]-4-yl)ethyl}-1,3-propylene glycol hydrochloride] the “Average of Angles of Repose” value [1] was 52.3 °, the “Angle of Repose” value [1] was 50.2 ° and 54.5 ° and the “Adhesion Amount Per Unit Area” value [2] was 0.001 g/m^2. The “Weight of API Adsorbed in Bag” value [2] was 0.0735 g.

For `CCc1nc(-c2ccc(-c3ccc(CCC(N)(CO)CO)cc3)cc2)co1.Cl` [crystal form A, 2-amino-2-{2-(4'-(2-ethyloxazol-4-yl)-[1,1'-biphenyl]-4-yl)ethyl}-1,3-propylene glycol hydrochloride], the “Average of Angles of Repose” value [1] was 57.2 °, the “Angle of Repose” value [1] was 56.3 ° and 58.0 ° and the “Adhesion Amount Per Unit Area” value [2] was 0.002 g/m^2. For the same compound, the “Weight of API Adsorbed in Bag” value [2] was 0.1053 g.
